# Bridge positions count the residues as written; N and C are the ends. Peptide text beside a SMILES is read from it.
# How the values were obtained:
# Kv1.3 [1] = target: T1, Kv1.3 (Homo sapiens, UniProt P22001)
# [2] = system: K+ channels in PC12 cells
# Kv1.3 [3] = target: T1, Kv1.3; assay: cell-based
# [4] = target: Kv1.3 potassium channel (transiently transfected into HEK293 cells)
# [5] = target: Kv1.3 potassium channel (transiently transfected into HEK293 cells); assay: cell-based or functional assay
# T1 sequence (P22001 whole entry): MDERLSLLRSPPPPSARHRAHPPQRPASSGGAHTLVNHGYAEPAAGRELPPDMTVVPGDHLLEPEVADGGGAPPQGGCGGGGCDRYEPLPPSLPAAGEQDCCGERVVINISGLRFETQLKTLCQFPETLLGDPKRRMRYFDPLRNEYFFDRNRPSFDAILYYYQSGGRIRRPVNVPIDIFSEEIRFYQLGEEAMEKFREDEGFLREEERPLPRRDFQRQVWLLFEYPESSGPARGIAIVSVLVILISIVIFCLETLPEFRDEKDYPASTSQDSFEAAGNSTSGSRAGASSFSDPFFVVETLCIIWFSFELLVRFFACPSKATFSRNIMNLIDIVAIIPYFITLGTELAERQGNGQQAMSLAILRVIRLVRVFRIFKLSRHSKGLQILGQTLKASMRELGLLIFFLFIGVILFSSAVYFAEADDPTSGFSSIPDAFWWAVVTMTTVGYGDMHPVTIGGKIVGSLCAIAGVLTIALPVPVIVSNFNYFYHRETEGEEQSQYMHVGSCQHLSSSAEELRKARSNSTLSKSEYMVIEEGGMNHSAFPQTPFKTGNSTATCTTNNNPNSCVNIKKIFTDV
compound,measurement,setting,value
"CC[C@H](C)[C@@H]1NC(=O)[C@@H](NC(=O)[C@H](CCCNC(=N)N)NC(=O)CNC(=O)[C@H](CC(C)C)NC(=O)CNC(=O)CN)CSSC[C@@H](C(=O)N[C@@H](Cc2ccc(O)cc2)C(=O)O)NC(=O)[C@H](CCSC)NC(=O)[C@H]([C@@H](C)O)NC(=O)[C@H](CCCCN)NC(=O)[C@@H]2CSSC[C@H](NC(=O)[C@H](CC(N)=O)NC(=O)[C@H](Cc3ccc(O)cc3)NC1=O)C(=O)N[C@@H](CCSC)C(=O)N[C@@H](CC(N)=O)C(=O)N[C@@H](CO)C(=O)NCC(=O)NCC(=O)NCC(=O)N[C@@H](CC(C)C)C(=O)N[C@@H](CO)C(=O)N[C@@H](Cc1ccccc1)C(=O)N[C@@H]([C@@H](C)CC)C(=O)N[C@@H](CCC(N)=O)C(=O)N2 [vil14a] (H-GGLGRCIYNCMNSGGGLSFIQCKTMCY-OH; disulfide 6-26, 10-22)",V50 of steady-state activation curve (Boltzmann fit),Kv1.3 [1],+9 mV
same,V50 of steady-state current-voltage relationship,Kv1.3 [1],19 mV
same,V50 of steady-state current-voltage relationship after washing the toxin,Kv1.3 [1],−4.4 mV
same,reduction of Kv1.3 currents,Kv1.3 [1],≈ 39%
same,reversibility of block,Kv1.3 [1],reversible
same,voltage dependence of reduction in K+ current,Kv1.3 [1],voltage dependent
same,block of K+ channels,[2],blocks K^+ channels
same,Kd,Kv1.3 [3],15.6 µM
vil14a conotoxin (framework 14 conotoxin from Conus villepinii) (peptide),Kd,[4],15.6 µM
same,"reduction of Kv1.3 K+ currents (whole-cell voltage clamp, HEK293)",[5],39%

# — patent US20090291104A1 (Florida Atlantic University, priority 2005, published 2009)
